According to paper PMC8540642, “Antineoplastic Activity of Rhus trilobata Nutt. (Anacardiaceae) against Ovarian Cancer and Identification of Active Metabolites in This Pathology” (Plants, 2021):
Values after ≈ are worked out from the molar mass of the structure shown. Values joined by “and” are separate entries in the source; they are usually repeats but may differ in a detail not shown here. Equal values may be shown once. Read-outs that look alike come from different tables or passages of the source. Values belong to the compound of their own block, whether it stands above or below them.

Key:
[1] = tested on: KB cell; set-up: method as in PMID 4437313; details: Ga isolated from RHTR leaves; cited from earlier work
[2] = tested on: SKOV-3 cells; test: MTT cell viability, dose-response curves 24 h; type: cell-based, human; details: for IC50: read-out: IC50 (half-maximal inhibitory concentration), SKOV-3
Protocol: (§1) Cultures (2 × 10^4 cells/well) were seeded with 200 μL of supplemented medium (Sigma®) in 96-well plates (Corning®, Corning, NY, USA) and incubated for 24 h. Cell treatments were 5-200 μg/mL of samples/controls for 24 h. At the end of the treatments, we added MTT (5 mg/mL, Sigma®) for 4 h of incubation, and optical density was measured at λ = 590 nm in a VariosKan® Flash (Thermo-Scientific®, Waltham, MA, USA). The half-maximal inhibitory concentration (IC50) was determined.

[3] = tested on: CACO-2 cells; test: MTT cell viability, dose-response curves 24 h; type: cell-based; details: for IC50: read-out: IC50 (half-maximal inhibitory concentration), CACO-2
Protocol: as §1

[4] = tested on: OVCAR-3 cells; test: MTT cell viability, dose-response curves 24 h; type: cell-based; details: for IC50: read-out: IC50 (half-maximal inhibitory concentration), OVCAR-3
Protocol: as §1

[5] = tested on: BEAS-2B cells; test: MTT cell viability, dose-response curves 24 h; type: cell-based
Protocol: as §1

[6] = tested on: CHO-K1 cells; test: MTT cell viability, dose-response curves 24 h; type: cell-based; details: for IC50: read-out: IC50 (half-maximal inhibitory concentration), CHO-K1
Protocol: as §1

[7] = tested on: ovarian cancer tumoral lesions; set-up: method as in PMID 32276584; details: 50 mg/kg, peritumoral route; cited from earlier work
[8] = tested on: MCF-7; set-up: method as in PMID 12781329, PMID 18790750; details: MCF-7, 50 μM, G1 phase; cited from earlier work
[9] = tested on: SKOV-3 cells xenotransplant; test: Antineoplastic activity in Nu/Nu mice with subcutaneous SKOV-3 xenotransplant; type: in vivo; set-up: key to Vascularity of tumor lesion / Fibrosis of tumor lesion: +, present; +++, abundant
Protocol: Nu/Nu mice were used to determine the antineoplastic activity of RHTR (20 female, 25 ± 5 g weight, and 6-8 weeks old). Mice were maintained in sterile conditions (25 ± 1 °C, and 12 h light/dark cycles) and ad libitum access to food (LabDiet®, Richmond, IN, USA) or water in UPEAL (CINVESTAV-IPN). The Institutional Ethics Committee approved all procedures (No. 184-16), following the Official Mexican Regulations: NOM-062-ZOO-1999 [31] and the International Guidelines (see Appendix A, NC3Rs ARRIVE Guidelines Checklist). Mice were xenotransplanted subcutaneously on the right flank with 5 × 10^6 SKOV-3 cells. The development of tumor lesions was monitored for 28 days (≈50 mm^3). Four weeks post-xenotransplantation, rodents were treated daily with 200 mg/kg/i.p. of AE, AF02, or controls for another 28 days. Finally, each week, we evaluated (i) bodyweight with an electronic bascule (CS200, Ohaus®, Parsippany, NJ, USA) and (ii) tumoral lesions with a Vernier caliper (Truper®, Jilotepec, Edo. de México, M.X.). At the end of treatments, mice were anesthetized with 0.1575 mg/250 μL 1× PBS (v/v, i.p.) of pentobarbital sodium (PiSA®, Guadalajara, Jal., M.X.) for the subsequent analyses (Figure 5).
(§2) Computed axial tomography (CAT) was performed with a Somatom Emotion™ (Siemens™) with animals in supine decubitus, full-body, and craniocaudal directions. The sequences and parameters used in the study were modifications based on the ExtrHR protocol. Ultrasonography (USG) was performed in an ultrasound system (LogiQ™ P7, General Electric-Healthcare®, Chicago, IL, USA), with real-time image, skeletal muscle preset, and Doppler application. Determination of paraclinical and histopathological studies such as hematic biometry, blood chemistry, and pathological lesions in liver, kidneys, and tumor were performed according to the protocol described by Varela-Rodríguez et al..

[10] = Paraclinical studies (blood chemistry, hematic biometry) and bodyweight in treated Nu/Nu mice; type: in vivo; details: 28 days treatment
Protocol: Nu/Nu mice were used to determine the antineoplastic activity of RHTR (20 female, 25 ± 5 g weight, and 6-8 weeks old). […] Mice were xenotransplanted subcutaneously on the right flank with 5 × 10^6 SKOV-3 cells. […] Four weeks post-xenotransplantation, rodents were treated daily with 200 mg/kg/i.p. of AE, AF02, or controls for another 28 days. Finally, each week, we evaluated (i) bodyweight with an electronic bascule (CS200, Ohaus®, Parsippany, NJ, USA) and (ii) tumoral lesions with a Vernier caliper (Truper®, Jilotepec, Edo. de México, M.X.).
as §2

[11] = Morphometric analysis of liver and kidneys in treated Nu/Nu mice; type: in vivo
Protocol: as §2

[12] = Homo sapiens, SK-OV-3, MTT, 24 h
[13] = Homo sapiens, SK-OV-3, MTT, 24 h, value in brackets
[14] = Homo sapiens, Caco-2, MTT, 24 h
[15] = Homo sapiens, Caco-2, MTT, 24 h, value in brackets
[16] = Homo sapiens, OVCAR-3, MTT, 24 h
[17] = Homo sapiens, OVCAR-3, MTT, 24 h, value in brackets
[18] = Homo sapiens, BEAS-2B, MTT, value in brackets, read-out: IC50 (half-maximal inhibitory concentration), BEAS-2B
[19] = Cricetulus griseus, CHO-K1, 24 h, MTT, 24 h
[20] = Cricetulus griseus, CHO-K1, 24 h, MTT, 24 h, value in brackets
[21] = Homo sapiens, BEAS-2B, MTT, read-out: IC50 (half-maximal inhibitory concentration), BEAS-2B

IC50 [2, 12]: 50 µg/mL
IC50 [2, 13]: 294 µM
IC50 [3, 14]: 25 µg/mL
IC50 [3, 15]: 147 µM
IC50 [4, 16]: 43 µg/mL
IC50 [4, 17]: 253 µM
Compound: O=C(O)c1cc(O)c(O)c(O)c1 [Gallic acid, gallic acid]
IC50, KB cell viability [1]: 3.1 µg/mL (≈ 18.2 µM)
IC50 [5, 18]: 147 µM
IC50 (half-maximal inhibitory concentration), BEAS-2B ([5]; MTT): 25 µg/mL (≈ 147 µM)
IC50 (half-maximal inhibitory concentration), BEAS-2B ([5]; MTT, listed as Ga): ~ 150 μg/mL
IC50 [6, 19]: ~150 µg/mL
IC50 [6, 20]: 588 µM
IC50 (half-maximal inhibitory concentration), CHO-K1 ([6]; MTT, 24 h): 100 µg/mL (≈ 588 µM)
inhibition of tumoral lesions (of progression) [7]: 50%

Compound: O=C(OC[C@H]1O[C@@H](OC(=O)c2cc(O)c(O)c(O)c2)[C@H](OC(=O)c2cc(O)c(O)c(O)c2)[C@@H](OC(=O)c2cc(O)c(O)c(O)c2)[C@@H]1OC(=O)c1cc(O)c(O)c(O)c1)c1cc(O)c(O)c(O)c1 [Compound 8, 1,2,3,4,6-pentakis-O-galloyl-β-D-glucose]
cell cycle effect [8]: cell cycle arrest

IC50 [2, 12]: 166 µg/mL
IC50 [2, 13]: 522 µM
IC50 [3, 14]: 62 µg/mL
IC50 [3, 15]: 195 µM
IC50 [4, 16]: 94 µg/mL
IC50 [4, 17]: 295 µM
Compound: O=c1c(O)c(-c2cc(O)c(O)c(O)c2)oc2cc(O)cc(O)c12 [Compound 5, myricetin]
IC50 [5, 18]: 201 µM
IC50 (half-maximal inhibitory concentration), BEAS-2B ([5]; MTT): 64 µg/mL (≈ 201 µM)
IC50 (half-maximal inhibitory concentration), BEAS-2B ([5]; MTT, listed as Myr): ~ 150 μg/mL
IC50 [6, 20]: 104 µM
IC50 (half-maximal inhibitory concentration), CHO-K1 ([6]; MTT, 24 h): 33 µg/mL (≈ 104 µM)
IC50 (half-maximal inhibitory concentration), CHO-K1 ([6]; MTT, 24 h, listed as Myr): ~ 150 μg/mL
inhibition of tumoral lesions (of progression) [7]: 50%

Compound: C[C@@H]1O[C@@H](Oc2c(-c3ccc(O)c(O)c3)oc3cc(O)cc(O)c3c2=O)[C@H](O)[C@H](O)[C@H]1O [Compound 12, quercitrin]
IC50 ([2]; Homo sapiens, SK-OV-3, 24 h): > 200 µg/mL and > 446 µM
IC50 ([3]; Homo sapiens, Caco-2, 24 h): 179 µg/mL and 399 µM
IC50 ([4]; Homo sapiens, OVCAR-3, 24 h): > 200 µg/mL and > 446 µM
IC50 ([5]; Homo sapiens, BEAS-2B, read-out: IC50 (half-maximal inhibitory concentration), BEAS-2B): > 200 µg/mL and > 446 µM
IC50 ([6]; Cricetulus griseus, CHO-K1, 24 h): > 200 µg/mL and > 446 µM

Compound: myricitrin [Compound 6]
IC50 (half-maximal inhibitory concentration), SKOV-3 ([2]; MTT, 24 h): 197 µg/mL
IC50 ([2]; MTT, 24 h, value in brackets): 424 µM
IC50 (half-maximal inhibitory concentration), CACO-2 ([3]; MTT, 24 h): > 200 µg/mL
IC50 ([3]; MTT, 24 h, value in brackets): > 431 µM
IC50 (half-maximal inhibitory concentration), OVCAR-3 ([4]; MTT, 24 h): 200 µg/mL
IC50 ([4]; MTT, 24 h, value in brackets): 431 µM
IC50 (half-maximal inhibitory concentration), BEAS-2B ([5]; MTT): 160 µg/mL
IC50 ([5]; read-out: IC50 (half-maximal inhibitory concentration), BEAS-2B, MTT, value in brackets): 344 µM
IC50 (half-maximal inhibitory concentration), CHO-K1 ([6]; MTT, 24 h): 94 µg/mL
IC50 ([6]; MTT, 24 h, value in brackets): 202 µM

IC50 [2, 12]: > 200 µg/mL
IC50 [2, 13]: > 1090 µM
IC50 [3, 14]: 100 µg/mL
IC50 [3, 15]: 543 µM
IC50 [4, 16]: > 200 µg/mL
IC50 [4, 17]: > 1090 µM
Compound: COC(=O)c1cc(O)c(O)c(O)c1 [Compound 2, methyl 3,4,5-trihydroxybenzoate]
IC50 [5, 21]: 200 µg/mL
IC50 [5, 18]: 1090 µM
IC50 [6, 19]: 130 µg/mL
IC50 [6, 20]: 706 µM

IC50 [2, 12]: > 200 µg/mL
IC50 [2, 13]: > 662 µM
IC50 [3, 14]: 150 µg/mL
IC50 [3, 15]: 496 µM
IC50 [4, 16]: 200 µg/mL
IC50 [4, 17]: 662 µM
Compound: O=c1c(O)c(-c2ccc(O)c(O)c2)oc2cc(O)cc(O)c12 [Compound 9, quercetin]
IC50 [5, 21]: 189 µg/mL
IC50 [5, 18]: 625 µM
IC50 [6, 19]: 127 µg/mL
IC50 [6, 20]: 420 µM

Compound: N.N.O=C([O-])C1(C(=O)[O-])CCC1.[Pt+2] [Carboplatin, carboplatin]
Fibrosis of tumor lesion ([9]; 1× PBS +): +
Vascularity of tumor lesion ([9]; 1× PBS +++): +
Morphology of tumor lesion ([9]; 1× PBS Cystic): Solid
necrosis percentage of tumor lesion (imaging) ([9]; Figure 3A, vehicle 35.16%): 5.19%
Tumor lesion weight ([9]; end of 28 days treatment, 1× PBS 0.34 ± 0.09): 0.14 ± 0.06 g
Tumor lesion larger diameter ([9]; end of 28 days treatment, 1× PBS 14.53 ± 2.4): 3.70 ± 0.26 mm
Tumor volume ([9]; end of 28 days treatment, 1× PBS 373.3 ± 18.1): 137.3 ± 18.6 * mm^3
PCT (plateletcrit) ([10]; 1× PBS 0.55 ± 0.30): 0.55 ± 0.29
Creatinine ([10]; 1× PBS 0.65 ± 0.2): 0.37 ± 0.26 mg/dL
Total bilirubin ([10]; 1× PBS 0.67 ± 0.16): 0.58 ± 0.2 mg/dL
Albumin ([10]; 1× PBS 1.36 ± 0.21): 1.33 ± 0.29 g/dL
Protein ([10]; 1× PBS 4.7 ± 0.56): 5.1 ± 1.46 g/dL
Erythrocytes ([10]; 1× PBS 7.92 ± 1.93): 7.81 ± 0.88 ×10^6/mm^3
Hemoglobin ([10]; 1× PBS 14.4 ± 2.13): 13.1 ± 1.61 g/dL
ALT (GPT) ([10]; 1× PBS 40.75 ± 14.5): 64.4 ± 6.87 U/L
Hematocrit ([10]; 1× PBS 44.52 ± 2.17): 40.57 ± 4.16%
Urea ([10]; 1× PBS 47.9 ± 7.16): 59.4 ± 9.99 mg/dL
Alkaline phosphatase ([10]; 1× PBS 71 ± 10.36): 66.6 ± 15.6 U/L
Glucose ([10]; 1× PBS 78.3 ± 16.6): 107 ± 14.8 mg/dL
Cholesterol ([10]; 1× PBS 85.5 ± 13.4): 108.6 ± 19.4 mg/dL
Triglycerides ([10]; 1× PBS 87.6 ± 12.01): 103.7 ± 12.7 mg/dL
AST (GOT) ([10]; 1× PBS 149.8 ± 27.29): 162.9 ± 8.2 U/L
Kidneys weight ([11]; 1X PBS 0.38 ± 0.042): 0.40 ± 0.01 g
Liver weight ([11]; 1X PBS 1.53 ± 0.14): 1.80 ± 0.10 g
Kidneys larger diameter ([11]; 1X PBS 9.34 ± 0.67): 11.5 ± 0.7 mm
Liver larger diameter ([11]; 1X PBS 29.65 ± 2.22): 30.5 ± 2.2 mm

IC50 [2, 12]: 200 µg/mL
IC50 [2, 13]: 699 µM
IC50 [3, 14]: 100 µg/mL
IC50 [3, 15]: 349 µM
IC50 [4, 16]: 200 µg/mL
IC50 [4, 17]: 699 µM
Compound: O=c1c(O)c(-c2ccc(O)c(O)c2)oc2cc(O)ccc12 [Compound 16, fisetin]
IC50 [5, 21]: 50 µg/mL
IC50 [5, 18]: 175 µM
IC50 [6, 19]: 46 µg/mL
IC50 [6, 20]: 161 µM
